{"source": "paper PMC3615411", "about": "(Cancer research, 2008)", "molecular_target": "E2F4 (Mus musculus, UniProt Q8R0K9)", "sequence (Q8R0K9 2-410)": "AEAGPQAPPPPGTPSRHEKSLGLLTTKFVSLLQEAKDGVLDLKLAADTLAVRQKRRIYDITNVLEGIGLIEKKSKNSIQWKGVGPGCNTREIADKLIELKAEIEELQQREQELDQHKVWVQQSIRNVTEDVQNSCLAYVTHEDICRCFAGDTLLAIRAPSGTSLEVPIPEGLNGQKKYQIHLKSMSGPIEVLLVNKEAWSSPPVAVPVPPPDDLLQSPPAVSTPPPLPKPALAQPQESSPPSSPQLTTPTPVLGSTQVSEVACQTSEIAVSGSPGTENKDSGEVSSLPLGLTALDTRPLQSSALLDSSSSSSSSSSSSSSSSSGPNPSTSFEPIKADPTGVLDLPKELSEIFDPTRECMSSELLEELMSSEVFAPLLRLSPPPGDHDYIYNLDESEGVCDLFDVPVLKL", "test": "EMSA of E2F4 DNA binding with compound added to cell extract", "format": "biochemical", "details": "NIH-3T3 protein extract; 20 µM screen; STAT3 EMSA as negative control"}
{"compound": "CCOc1ccc(C(Nc2ccccn2)c2ccc3ccc(C)nc3c2O)cc1C", "note": "(stereo not shown) [HLM006474]", "values": [{"measurement": "inhibition at 20 μM", "result": "Incubation of these compounds with NIH-3T3 protein extracts identified ten compounds with potential E2F4-inhibitory activity"}]}
